The values that follow are results of earlier work, collected in patent publication EP0211258A2, “Microemulsion compositions” (ABBOTT LABORATORIES, priority 1985, dated 1987).

For the data set the following is noted: commonly employed aqueous solutions, 2.5%, w/v.

Consider `CCCC(C)C1(CC)C(=O)NC(=S)NC1=O` (stereo not shown) [thiopental sodium], for which the pH is 10.5.
